The values below come from PMC8837635, “Structural and functional analyses explain Pea KAI2 receptor diversity and reveal stereoselective catalysis during signal perception” (Communications Biology, 2022).

For assay [1], the target named is T1, PsKAI2B (Lathyrus oleraceus, UniProt A0A8X6EGX8).
T1 sequence (A0A8X6EGX8 1-270): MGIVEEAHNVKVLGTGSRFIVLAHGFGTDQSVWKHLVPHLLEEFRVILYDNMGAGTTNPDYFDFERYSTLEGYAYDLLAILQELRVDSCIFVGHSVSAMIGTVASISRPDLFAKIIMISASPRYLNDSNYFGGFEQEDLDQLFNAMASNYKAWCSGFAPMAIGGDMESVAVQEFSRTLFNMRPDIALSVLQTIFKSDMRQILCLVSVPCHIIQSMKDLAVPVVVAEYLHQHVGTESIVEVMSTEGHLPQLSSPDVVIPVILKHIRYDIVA
The assay can be described thus: intrinsic tryptophan fluorescence Kd; DSF shift; hydrolysis by UPLC; MS covalent adduct. In kind it is binding.

For assay [2], the target named is T2, AtD14 (Arabidopsis thaliana, UniProt Q9SQR3).
T2 construct: gene D14
T2 sequence (Q9SQR3 1-267): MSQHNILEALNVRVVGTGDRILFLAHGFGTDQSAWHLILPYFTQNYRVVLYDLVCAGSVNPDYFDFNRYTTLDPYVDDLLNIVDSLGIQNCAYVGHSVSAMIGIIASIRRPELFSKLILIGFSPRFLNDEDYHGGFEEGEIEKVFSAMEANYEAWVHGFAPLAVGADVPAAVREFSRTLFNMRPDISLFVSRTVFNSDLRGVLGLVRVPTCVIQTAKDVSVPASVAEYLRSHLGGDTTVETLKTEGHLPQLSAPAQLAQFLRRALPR
In words: hydrolysis by purified protein, UPLC-UV. In kind it is biochemical.

In assay [3] the target is T3, PsKAI2A (Lathyrus oleraceus, UniProt A0A9D4YJ13).
T3 construct: gene KIW84_024963; PsKAI2A.2 (272 aa)
T3 sequence (A0A9D4YJ13 1-264 limits assumed): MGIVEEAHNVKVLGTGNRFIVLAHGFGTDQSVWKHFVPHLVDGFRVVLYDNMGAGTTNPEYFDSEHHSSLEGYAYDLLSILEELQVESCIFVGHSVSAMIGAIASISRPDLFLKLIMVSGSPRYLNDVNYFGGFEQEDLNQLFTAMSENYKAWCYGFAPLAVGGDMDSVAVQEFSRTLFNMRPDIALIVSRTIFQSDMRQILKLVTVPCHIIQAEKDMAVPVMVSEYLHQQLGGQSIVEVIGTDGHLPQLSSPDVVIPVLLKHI
The assay can be described thus: intrinsic tryptophan fluorescence Kd; hydrolysis by UPLC; MS covalent adduct. In kind it is binding.

The target in assay [4] is T4, RMS3 (Lathyrus oleraceus, UniProt A0A109QYD3).
T4 sequence (A0A109QYD3 1-267): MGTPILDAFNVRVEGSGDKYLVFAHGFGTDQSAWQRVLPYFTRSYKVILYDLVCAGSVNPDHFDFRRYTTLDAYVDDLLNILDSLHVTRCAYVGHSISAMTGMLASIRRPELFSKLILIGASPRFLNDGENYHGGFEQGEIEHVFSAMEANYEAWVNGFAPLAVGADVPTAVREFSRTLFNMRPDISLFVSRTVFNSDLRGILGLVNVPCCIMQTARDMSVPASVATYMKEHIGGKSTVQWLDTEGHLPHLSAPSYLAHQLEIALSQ
The assay can be described thus: hydrolysis by purified protein, UPLC-UV. In kind it is biochemical.

In assay [5] the target is T1, PsKAI2B. In words: co-crystal structure with (–)-GR24 at […] Å; hydrolysis product trapped in catalytic site; MS +[…] Da adduct on H246. In kind it is binding.

SMILES strings stand for the structures.

As to `CC1=C[C@@H](O/C=C2/C(=O)O[C@H]3c4ccccc4C[C@@H]23)OC1=O` [(–)-GR24], the Kd (commonly the equilibrium constant for the complex coming apart) was found to be 89.4 ± 12.1 µM in assay [1] and 115 ± 9.87 µM in assay [3]. In addition, the “hydrolysis by purified protein, UPLC-UV” value is “AtD14 and PsRMS3 (Pisum D14) similarly bind and hydrolyze both the isolated (–)- and (+)-GR24 stereoisomers” in assay [2]; “AtD14 and PsRMS3 (Pisum D14) similarly bind and hydrolyze both the isolated (–)- and (+)-GR24 stereoisomers” in assay [4].

On to `CC1=CC(O)OC1=O` [D-OH, 5-hydroxy-3-methylbutenolide], for which the “co-crystal structure with (-)-GR24 at 2.0 Å; hydrolysis product trapped in catal” value in assay [5] was 5-hydroxy-3-methylbutenolide (D-OH ring), resulting from the (–)-GR24 cleavage, is trapped in the catalytic site.
